Data: PubChem BioAssay (NCI)
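A five-concentration, 48-hour dose response in 96-well plates underlies each endpoint, interpolated linearly between surrounding concentrations. TGI denotes the concentration required for complete inhibition of growth.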

Key:
Assay in all cases: inhibition of tumour cell growth, NCI panel, 48 h
[1] = system: UACC-62 melanoma
[2] = system: OVCAR-5 ovarian
[3] = system: HCT-15 colon
[4] = system: NCI-H23 lung
[5] = system: HCT-116 colon
[6] = system: NCI/ADR-RES ovarian
[7] = system: EKVX NSCLC
[8] = system: SF-539 CNS
[9] = system: OVCAR-3 ovarian
[10] = system: MOLT-4 leukemia
[11] = system: IGROV1 ovarian
[12] = system: CAKI-1 renal
[13] = system: HL-60(TB) leukemia
[14] = system: UACC-257 melanoma
[15] = system: U251 CNS
[16] = system: SF-295 CNS
[17] = system: SNB-75 CNS
[18] = system: ACHN renal
[19] = system: 786-0 renal
[20] = system: M14 melanoma
[21] = system: T-47D breast
[22] = system: DU-145 prostate
[23] = system: HT29 colon
[24] = system: MDA-MB-231 breast
[25] = system: SF-268 CNS
[26] = system: HOP-62 NSCLC
[27] = system: MALME-3M melanoma
[28] = system: PC-3 prostate
[29] = system: SK-MEL-5 melanoma
[30] = system: K-562 leukemia
[31] = system: A549 NSCLC
[32] = system: RXF 393 renal
[33] = system: LOX IMVI melanoma
[34] = system: NCI-H460 lung
[35] = system: HOP-92 NSCLC
[36] = system: SNB-19 CNS
[37] = system: COLO 205 colon
[38] = system: SK-OV-3 ovarian
[39] = system: SK-MEL-2 melanoma
[40] = system: NCI-H226 lung
[41] = system: TK-10 renal
[42] = system: BT-549 breast
[43] = system: OVCAR-8 ovarian
[44] = system: SK-MEL-28 melanoma
[45] = system: KM12 colon
[46] = system: A498 renal
[47] = system: HS 578T breast
[48] = system: MCF7 breast
[49] = system: SR leukemia
[50] = system: OVCAR-4 ovarian
[51] = system: SN12C renal
[52] = system: MDA-N
[53] = system: CCRF-CEM leukemia
[54] = system: NCI-H522 lung
[55] = system: SW-620 colon
[56] = system: UO-31 renal
[57] = system: MDA-MB-435
[58] = system: RPMI-8226 leukemia

Measured: TGI

C/C(=N\NC(=O)c1ccncc1)c1ccccc1Cl
> 100 µM: [1] | [2] | [3] | [4] | [5] | [6] | [7] | [8] | [9] | [10] | [11] | [12] | [13] | [14] | [15] | [16] | [17] | [18] | [19] | [20] | [21] | [22] | [23] | [24] | [25] | [26] | [27] | [28] | [29] | [30] | [31] | [32] | [33] | [34] | [35] | [36] | [37] | [38] | [39] | [40] | [41] | [42] | [43] | [44] | [45] | [46] | [47] | [48] | [49] | [50] | [51] | [52] | [53] | [54] | [55] | [56] | [57] | [58]
